# Tests used:
# Assay in all cases: KINOMEscan competition binding
# Details in all cases: compound 10.0 µM
# STK38 (human) = STK38 (human) (UniProt Q15208)
# DDR1 (human) = DDR1 (human) (UniProt Q08345)
# HIPK3 (human) = HIPK3 (human) (UniProt Q9H422)
# TRPM6 (human) = TRPM6 (human) (UniProt Q9BX84)
# IRAK1 (human) = IRAK1 (human) (UniProt P51617)
# ROCK1 (human) = ROCK1 (human) (UniProt Q13464)
# DSTYK (human) = DSTYK (human) (UniProt Q6XUX3)
# SBK1 (human) = SBK1 (human) (UniProt Q52WX2)
# HUNK (human) = HUNK (human) (UniProt P57058)
# [1] = tested on: PIK3CA (human), P42336 [E545K]
# EIF2AK1 (human) = EIF2AK1 (human) (UniProt Q9BQI3)
# MAK (human) = MAK (human) (UniProt P20794)
# NEK11 (human) = NEK11 (human) (UniProt Q8NG66)
# [2] = tested on: PIK3CA (human), P42336 [E545A]
# NEK4 (human) = NEK4 (human) (UniProt P51957)
# ERN1 (human) = ERN1 (human) (UniProt O75460)
# PRPF4B (human) = PRPF4B (human) (UniProt Q13523)
# EPHB6 (human) = EPHB6 (human) (UniProt O15197)
# CDKL5 (human) = CDKL5 (human) (UniProt O76039)
# CDKL1 (human) = CDKL1 (human) (UniProt Q00532)
# CDK4 CCND1 (human) = CDK4 CCND1 (human) (UniProt P11802+P24385)
# [3] = tested on: FLT3 (human), P36888 [K663Q]
# DYRK2 (human) = DYRK2 (human) (UniProt Q92630)
# MATK (human) = MATK (human) (UniProt P42679)
# STK32A (human) = STK32A (human) (UniProt Q8WU08)
# OXSR1 (human) = OXSR1 (human) (UniProt O95747)
# ERBB3 (human) = ERBB3 (human) (UniProt P21860)
# PI4KB (human) = PI4KB (human) (UniProt Q9UBF8)
# TBK1 (human) = TBK1 (human) (UniProt Q9UHD2)
# MAP2K5 (human) = MAP2K5 (human) (UniProt Q13163)
# ICK (human) = ICK (human) (UniProt Q9UPZ9)
# NEK3 (human) = NEK3 (human) (UniProt P51956)
# TIE1 (human) = TIE1 (human) (UniProt P35590)
# PKN3 (M.tuberculosis) = PKN3 (M.tuberculosis) (UniProt Q6P5Z2)
# CDKL3 (human) = CDKL3 (human) (UniProt Q8IVW4)
# LRRK2 (human) = LRRK2 (human) (UniProt Q5S007)
# PIP5K1C (human) = PIP5K1C (human) (UniProt O60331)
# HIPK4 (human) = HIPK4 (human) (UniProt Q8NE63)
# RPS6KB1 (human) = RPS6KB1 (human) (UniProt P23443)
# PIK3CA (human) = PIK3CA (human) (UniProt P42336)
# DYRK2 (human), sequence (Q92630 whole entry, looked up): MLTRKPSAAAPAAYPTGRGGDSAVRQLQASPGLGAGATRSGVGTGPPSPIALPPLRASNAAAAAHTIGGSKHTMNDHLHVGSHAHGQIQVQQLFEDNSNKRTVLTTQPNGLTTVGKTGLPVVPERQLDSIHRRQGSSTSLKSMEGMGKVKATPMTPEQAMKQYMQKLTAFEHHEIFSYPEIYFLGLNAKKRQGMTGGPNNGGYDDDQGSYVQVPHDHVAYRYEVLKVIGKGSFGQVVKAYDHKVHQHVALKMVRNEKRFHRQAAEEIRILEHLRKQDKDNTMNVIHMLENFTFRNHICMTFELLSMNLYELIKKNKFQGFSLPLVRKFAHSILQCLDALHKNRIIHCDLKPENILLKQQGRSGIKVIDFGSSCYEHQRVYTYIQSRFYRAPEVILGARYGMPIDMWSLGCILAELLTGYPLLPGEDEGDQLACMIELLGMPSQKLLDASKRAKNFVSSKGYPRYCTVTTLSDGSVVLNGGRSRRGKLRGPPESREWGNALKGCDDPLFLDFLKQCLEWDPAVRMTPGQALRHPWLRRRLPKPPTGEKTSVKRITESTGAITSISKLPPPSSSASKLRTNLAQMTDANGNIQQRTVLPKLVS
# LRRK2 (human), sequence (Q5S007 whole entry, looked up): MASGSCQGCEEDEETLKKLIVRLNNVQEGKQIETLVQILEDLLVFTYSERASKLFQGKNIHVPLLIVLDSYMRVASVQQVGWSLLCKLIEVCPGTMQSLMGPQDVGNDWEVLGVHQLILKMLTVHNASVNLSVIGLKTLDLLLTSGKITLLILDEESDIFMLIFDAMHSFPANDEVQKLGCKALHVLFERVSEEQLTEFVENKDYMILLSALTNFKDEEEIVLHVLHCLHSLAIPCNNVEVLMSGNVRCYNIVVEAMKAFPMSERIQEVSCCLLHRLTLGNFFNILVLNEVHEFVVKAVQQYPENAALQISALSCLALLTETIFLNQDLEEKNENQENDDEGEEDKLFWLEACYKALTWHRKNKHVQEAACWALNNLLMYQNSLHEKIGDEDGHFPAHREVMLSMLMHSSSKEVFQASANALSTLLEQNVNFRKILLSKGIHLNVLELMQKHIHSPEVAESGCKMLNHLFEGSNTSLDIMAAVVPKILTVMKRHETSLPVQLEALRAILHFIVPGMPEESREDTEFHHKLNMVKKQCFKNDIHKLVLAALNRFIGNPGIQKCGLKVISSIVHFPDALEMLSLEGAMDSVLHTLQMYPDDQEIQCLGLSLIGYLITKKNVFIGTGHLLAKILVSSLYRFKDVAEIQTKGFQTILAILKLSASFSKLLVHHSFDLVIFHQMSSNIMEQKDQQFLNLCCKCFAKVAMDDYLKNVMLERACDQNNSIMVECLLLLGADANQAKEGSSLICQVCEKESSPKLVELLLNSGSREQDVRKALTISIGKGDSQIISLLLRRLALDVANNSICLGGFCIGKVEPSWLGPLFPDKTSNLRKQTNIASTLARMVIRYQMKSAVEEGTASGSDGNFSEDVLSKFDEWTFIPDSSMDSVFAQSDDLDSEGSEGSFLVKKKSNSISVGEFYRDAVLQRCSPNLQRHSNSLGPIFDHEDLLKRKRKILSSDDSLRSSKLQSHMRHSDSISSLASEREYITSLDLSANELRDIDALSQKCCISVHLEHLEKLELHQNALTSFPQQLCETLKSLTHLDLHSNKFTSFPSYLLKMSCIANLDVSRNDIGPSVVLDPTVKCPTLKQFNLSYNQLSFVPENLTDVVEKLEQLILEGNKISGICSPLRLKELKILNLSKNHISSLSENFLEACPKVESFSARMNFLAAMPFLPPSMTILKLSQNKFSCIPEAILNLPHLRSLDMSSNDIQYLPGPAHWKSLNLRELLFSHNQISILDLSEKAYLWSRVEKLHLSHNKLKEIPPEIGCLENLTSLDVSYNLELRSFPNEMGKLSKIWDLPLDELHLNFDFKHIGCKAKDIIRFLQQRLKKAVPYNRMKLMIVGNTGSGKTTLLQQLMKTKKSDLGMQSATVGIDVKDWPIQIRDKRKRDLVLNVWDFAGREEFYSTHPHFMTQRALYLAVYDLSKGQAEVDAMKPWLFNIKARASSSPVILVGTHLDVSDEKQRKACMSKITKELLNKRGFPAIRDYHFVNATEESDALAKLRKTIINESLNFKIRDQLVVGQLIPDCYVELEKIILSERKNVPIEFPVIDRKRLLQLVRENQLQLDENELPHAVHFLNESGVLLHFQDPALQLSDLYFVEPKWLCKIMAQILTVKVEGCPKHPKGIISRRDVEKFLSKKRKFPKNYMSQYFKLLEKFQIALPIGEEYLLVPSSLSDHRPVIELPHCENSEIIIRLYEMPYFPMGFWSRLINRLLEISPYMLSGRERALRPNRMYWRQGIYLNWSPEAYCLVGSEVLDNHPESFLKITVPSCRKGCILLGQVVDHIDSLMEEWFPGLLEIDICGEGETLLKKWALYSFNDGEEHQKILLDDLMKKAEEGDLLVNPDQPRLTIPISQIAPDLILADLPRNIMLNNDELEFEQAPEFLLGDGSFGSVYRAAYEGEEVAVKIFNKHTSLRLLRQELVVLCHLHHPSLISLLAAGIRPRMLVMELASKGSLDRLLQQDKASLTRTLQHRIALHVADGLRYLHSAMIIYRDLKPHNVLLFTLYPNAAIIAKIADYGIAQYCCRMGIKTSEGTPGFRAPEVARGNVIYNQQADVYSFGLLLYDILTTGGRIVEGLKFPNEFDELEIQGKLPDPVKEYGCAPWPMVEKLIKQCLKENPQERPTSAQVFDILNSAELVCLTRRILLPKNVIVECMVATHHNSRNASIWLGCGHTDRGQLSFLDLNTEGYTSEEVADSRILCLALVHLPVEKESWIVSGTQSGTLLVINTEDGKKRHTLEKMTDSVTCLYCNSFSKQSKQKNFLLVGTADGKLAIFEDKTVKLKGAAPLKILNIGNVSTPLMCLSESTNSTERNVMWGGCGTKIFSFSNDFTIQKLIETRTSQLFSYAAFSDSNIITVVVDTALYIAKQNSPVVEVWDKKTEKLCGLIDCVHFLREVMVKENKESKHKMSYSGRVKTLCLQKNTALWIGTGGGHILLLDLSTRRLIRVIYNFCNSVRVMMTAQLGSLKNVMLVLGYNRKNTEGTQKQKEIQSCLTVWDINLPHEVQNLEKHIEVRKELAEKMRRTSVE
# MAP2K5 (human), sequence (Q13163 whole entry, looked up): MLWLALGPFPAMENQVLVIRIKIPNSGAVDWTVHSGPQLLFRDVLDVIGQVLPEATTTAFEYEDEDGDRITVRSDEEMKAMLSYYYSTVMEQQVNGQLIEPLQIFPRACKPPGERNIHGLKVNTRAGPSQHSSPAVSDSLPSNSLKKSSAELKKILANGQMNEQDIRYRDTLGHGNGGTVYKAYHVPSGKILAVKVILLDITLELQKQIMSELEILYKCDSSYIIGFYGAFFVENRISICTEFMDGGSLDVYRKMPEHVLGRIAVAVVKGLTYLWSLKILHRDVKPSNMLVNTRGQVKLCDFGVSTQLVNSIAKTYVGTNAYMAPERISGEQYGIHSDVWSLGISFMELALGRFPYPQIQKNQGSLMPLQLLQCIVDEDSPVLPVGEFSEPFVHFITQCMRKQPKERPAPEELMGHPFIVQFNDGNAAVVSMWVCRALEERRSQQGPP
# IRAK1 (human), sequence (P51617 whole entry, looked up): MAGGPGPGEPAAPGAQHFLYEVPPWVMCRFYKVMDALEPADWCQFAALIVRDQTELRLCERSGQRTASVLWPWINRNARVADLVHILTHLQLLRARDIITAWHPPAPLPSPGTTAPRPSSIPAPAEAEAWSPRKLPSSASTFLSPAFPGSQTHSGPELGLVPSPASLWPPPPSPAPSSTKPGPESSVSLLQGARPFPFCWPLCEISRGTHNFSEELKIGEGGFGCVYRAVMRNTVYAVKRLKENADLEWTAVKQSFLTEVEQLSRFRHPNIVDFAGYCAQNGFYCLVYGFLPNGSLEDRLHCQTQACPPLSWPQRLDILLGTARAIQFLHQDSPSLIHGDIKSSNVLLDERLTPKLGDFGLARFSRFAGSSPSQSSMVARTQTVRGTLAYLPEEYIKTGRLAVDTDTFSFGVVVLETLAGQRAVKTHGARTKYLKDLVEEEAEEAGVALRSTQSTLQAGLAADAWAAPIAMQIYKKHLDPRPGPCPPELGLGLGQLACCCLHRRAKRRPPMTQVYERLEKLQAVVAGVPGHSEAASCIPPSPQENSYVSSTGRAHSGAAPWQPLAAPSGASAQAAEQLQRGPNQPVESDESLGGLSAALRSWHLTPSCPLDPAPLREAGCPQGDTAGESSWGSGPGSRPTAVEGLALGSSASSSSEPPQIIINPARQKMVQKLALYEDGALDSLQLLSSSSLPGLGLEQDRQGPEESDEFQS
# TBK1 (human), sequence (Q9UHD2 whole entry, looked up): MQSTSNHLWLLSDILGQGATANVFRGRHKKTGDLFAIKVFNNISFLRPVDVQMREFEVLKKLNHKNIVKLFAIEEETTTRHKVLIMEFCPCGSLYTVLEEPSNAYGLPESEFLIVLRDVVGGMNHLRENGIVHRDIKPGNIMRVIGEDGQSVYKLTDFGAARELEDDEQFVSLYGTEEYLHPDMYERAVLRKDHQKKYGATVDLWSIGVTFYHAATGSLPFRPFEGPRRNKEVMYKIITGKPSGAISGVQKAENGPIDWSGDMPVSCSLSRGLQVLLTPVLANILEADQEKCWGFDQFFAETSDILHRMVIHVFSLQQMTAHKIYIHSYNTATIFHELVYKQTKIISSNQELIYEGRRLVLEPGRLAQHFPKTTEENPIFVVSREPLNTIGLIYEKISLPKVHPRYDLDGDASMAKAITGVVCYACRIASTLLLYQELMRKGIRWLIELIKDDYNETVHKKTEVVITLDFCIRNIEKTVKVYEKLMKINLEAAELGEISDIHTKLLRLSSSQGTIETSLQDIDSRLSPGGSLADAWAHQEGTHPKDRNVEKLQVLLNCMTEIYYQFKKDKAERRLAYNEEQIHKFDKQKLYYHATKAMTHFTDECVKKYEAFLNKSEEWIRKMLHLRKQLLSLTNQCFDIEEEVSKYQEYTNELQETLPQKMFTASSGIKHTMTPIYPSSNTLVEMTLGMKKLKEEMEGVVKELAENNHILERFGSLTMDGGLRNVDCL
SMILES,"kinase still bound, per cent of control (STK38 (human)) [%]","kinase still bound, per cent of control (IRAK1 (human)) [%]","kinase still bound, per cent of control (ROCK1 (human)) [%]","kinase still bound, per cent of control (DSTYK (human)) [%]","kinase still bound, per cent of control (SBK1 (human)) [%]","kinase still bound, per cent of control (HUNK (human)) [%]","kinase still bound, per cent of control (EIF2AK1 (human)) [%]","kinase still bound, per cent of control (MAK (human)) [%]","kinase still bound, per cent of control [2] [%]","kinase still bound, per cent of control (NEK4 (human)) [%]","kinase still bound, per cent of control (ERN1 (human)) [%]","kinase still bound, per cent of control (PRPF4B (human)) [%]","kinase still bound, per cent of control (EPHB6 (human)) [%]","kinase still bound, per cent of control (CDKL5 (human)) [%]","kinase still bound, per cent of control (CDKL1 (human)) [%]","kinase still bound, per cent of control (CDK4 CCND1 (human)) [%]","kinase still bound, per cent of control (DYRK2 (human)) [%]","kinase still bound, per cent of control (MATK (human)) [%]","kinase still bound, per cent of control (STK32A (human)) [%]","kinase still bound, per cent of control (OXSR1 (human)) [%]",other results
CCC(=O)N1CCN(c2ccc(-n3c(=O)ccc4cnc5ccc(-c6cnc7ccccc7c6)cc5c43)cc2C(F)(F)F)CC1,100,100,53,28,88,91,57,68,1,86,100,100,80,100,100,100,86,97,100,100,"kinase still bound, per cent of control (DDR1 (human)): 100%; kinase still bound, per cent of control (HIPK3 (human)): 86%; kinase still bound, per cent of control (TRPM6 (human)): 100%; kinase still bound, per cent of control [1]: 0.6%; kinase still bound, per cent of control (NEK11 (human)): 65%; kinase still bound, per cent of control [3]: 23%; kinase still bound, per cent of control (ERBB3 (human)): 44%; kinase still bound, per cent of control (PI4KB (human)): 96%; kinase still bound, per cent of control (TBK1 (human)): 93%; kinase still bound, per cent of control (MAP2K5 (human)): 100%; kinase still bound, per cent of control (ICK (human)): 100%; kinase still bound, per cent of control (NEK3 (human)): 100%; kinase still bound, per cent of control (TIE1 (human)): 100%; kinase still bound, per cent of control (PKN3 (M.tuberculosis)): 64%; kinase still bound, per cent of control (CDKL3 (human)): 92%; kinase still bound, per cent of control (LRRK2 (human)): 81%; kinase still bound, per cent of control (PIP5K1C (human)): 80%; kinase still bound, per cent of control (HIPK4 (human)): 4.6%"
CCCS(=O)(=O)Nc1ccc(F)c(C(=O)c2c[nH]c3ncc(-c4ccc(Cl)cc4)cc23)c1F,100,99,85,22,92,9.1,60,100,95,95,82,92,5.8,100,100,52,100,100,100,95,"kinase still bound, per cent of control (HIPK3 (human)): 100%; kinase still bound, per cent of control (RPS6KB1 (human)): 86%; kinase still bound, per cent of control (TRPM6 (human)): 100%; kinase still bound, per cent of control [1]: 100%; kinase still bound, per cent of control (PIK3CA (human)): 94%; kinase still bound, per cent of control (ERBB3 (human)): 73%; kinase still bound, per cent of control (PI4KB (human)): 0.7%; kinase still bound, per cent of control (TBK1 (human)): 100%; kinase still bound, per cent of control (MAP2K5 (human)): 0.15%; kinase still bound, per cent of control (ICK (human)): 73%; kinase still bound, per cent of control (TIE1 (human)): 38%; kinase still bound, per cent of control (PKN3 (M.tuberculosis)): 78%; kinase still bound, per cent of control (CDKL3 (human)): 100%; kinase still bound, per cent of control (LRRK2 (human)): 59%; kinase still bound, per cent of control (PIP5K1C (human)): 44%"
CCOc1cc2ncc(C#N)c(Nc3ccc(OCc4ccccn4)c(Cl)c3)c2cc1NC(=O)/C=C/CN(C)C,81,65,100,69,100,86,100,100,100,100,80,92,83,100,100,71,64,71,77,54,"kinase still bound, per cent of control (RPS6KB1 (human)): 100%; kinase still bound, per cent of control (NEK11 (human)): 64%; kinase still bound, per cent of control (PIK3CA (human)): 86%; kinase still bound, per cent of control (ERBB3 (human)): 0.1%; kinase still bound, per cent of control (PI4KB (human)): 100%; kinase still bound, per cent of control (TBK1 (human)): 100%; kinase still bound, per cent of control (MAP2K5 (human)): 1.8%; kinase still bound, per cent of control (ICK (human)): 100%; kinase still bound, per cent of control (NEK3 (human)): 41%; kinase still bound, per cent of control (PKN3 (M.tuberculosis)): 100%; kinase still bound, per cent of control (CDKL3 (human)): 100%; kinase still bound, per cent of control (LRRK2 (human)): 99%; kinase still bound, per cent of control (PIP5K1C (human)): 100%; kinase still bound, per cent of control (HIPK4 (human)): 42%"

# Reference: the kinase profiling compilation of Christmann-Franck et al. (2016)
